Assays:
[1] = Retention time in rat liver microsomes treated with 50 uM pirfenidone incubated for 45 mins in presence of NADPH by LC-MS/MS analysis; format: ADME, Microsome; details: 0.75 h
[2] = Retention time in rat liver microsomes treated with 50 uM pirfenidone incubated for 45 mins in presence of NADPH and NAC by LC-MS/MS analysis; format: ADME, Microsome; details: 0.75 h
Cytochrome P450 3A4 [3] = molecular target: T1, Cytochrome P450 3A4 (Homo sapiens, UniProt P08684); assay: Drug level assessed as human recombinant CYP3A4-mediated compound formation using 50 uM pirfenidone incubated for 45 mins in presence of NADPH and glutathione by LC-MS/MS analysis; format: ADME; details: recombinant enzyme, 0.75 h
Cytochrome P450 3A5 [4] = molecular target: T2, Cytochrome P450 3A5 (Homo sapiens, UniProt P20815); assay: Drug level assessed as human recombinant CYP3A5-mediated compound formation using 50 uM pirfenidone incubated for 45 mins in presence of NADPH and glutathione by LC-MS/MS analysis; format: ADME; details: recombinant enzyme, 0.75 h
Cytochrome P450 2A6 = molecular target: T3, Cytochrome P450 2A6 (Homo sapiens, UniProt P11509); assay: Drug metabolism assessed as human recombinant CYP2A6-mediated compound activation using 50 uM pirfenidone incubated for 45 mins in presence of NADPH and glutathione by LC-MS/MS analysis; format: ADME; details: recombinant enzyme, 0.75 h
T3 sequence (P11509 whole entry): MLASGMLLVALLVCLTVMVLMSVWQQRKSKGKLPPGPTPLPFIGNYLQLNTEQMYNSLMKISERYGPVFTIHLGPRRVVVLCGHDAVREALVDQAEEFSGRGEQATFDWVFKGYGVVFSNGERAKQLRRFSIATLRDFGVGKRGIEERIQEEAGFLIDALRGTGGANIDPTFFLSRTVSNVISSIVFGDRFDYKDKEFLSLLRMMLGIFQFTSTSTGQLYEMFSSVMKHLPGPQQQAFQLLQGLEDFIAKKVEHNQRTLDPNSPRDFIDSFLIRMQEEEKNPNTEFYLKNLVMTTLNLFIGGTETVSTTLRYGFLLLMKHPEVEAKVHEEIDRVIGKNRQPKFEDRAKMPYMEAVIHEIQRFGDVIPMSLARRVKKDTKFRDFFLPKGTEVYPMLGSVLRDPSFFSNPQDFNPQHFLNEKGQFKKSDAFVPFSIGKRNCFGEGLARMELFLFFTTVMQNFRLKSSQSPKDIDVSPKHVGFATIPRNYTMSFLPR

[5] = Drug metabolism in rat bile assessed as formation of (2R)-2-acetamido-3-[(6-oxo-1-phenyl-3-pyridyl)methylsulfanyl]propanoic acid at 100 mg/kg, ip measured after 2 hrs by LC-MS/MS analysis; format: ADME, organism-based; details: in vivo
Cytochrome P450 3A4 [6] = molecular target: T1, Cytochrome P450 3A4; assay: Drug metabolism assessed as human recombinant CYP3A4-mediated 5-methylene-1-phenyl-pyridin-1-ium-2-one formation at 50 uM incubated for 45 mins in presence of NADPH and glutathione by LC-MS/MS analysis; format: ADME; details: recombinant enzyme, 0.75 h
[7] = Drug metabolism in rat liver microsomes assessed as Retention time of GSH metabolite at 50 uM incubated for 45 mins in presence of NADPH and glutathione by LC-MS/MS analysis; format: ADME, Microsome; details: 0.75 h
[8] = Drug metabolism in rat liver assessed as formation of GSH-conjugate by measuring retention time of cysteine adduct in proteolytic protein samples at 10 to 400 mg/kg, ip measured up to 3 hrs by LC-MS/MS analysis; format: ADME, organism-based; details: in vivo
[9] = Drug metabolism in rat liver microsomes assessed as 5-Hydroxymethyl-1-phenyl-1H-pyridine-2-one formation at 50 uM incubated for 45 mins in presence of NADPH and glutathione by LC-MS/MS analysis; format: ADME, Microsome; details: 0.75 h
[10] = Drug metabolism in rat liver assessed as formation of GSH-conjugate by measuring hepatic protein adduction formation at 50 to 200 mg/kg, ip measured after 1 hr by LC-MS/MS analysis; format: ADME, organism-based; details: in vivo
[11] = Toxicity in rat assessed as induction of liver injury at 150 to 200 mg/kg, ip; format: organism-based; details: in vivo
Hepatocyte = assay: Toxicity in rat primary hepatocytes at 800 uM; format: cell-based
Cytochrome P450 3A5 [12] = molecular target: T2, Cytochrome P450 3A5; assay: Drug metabolism assessed as human recombinant CYP3A5-mediated 5-methylene-1-phenyl-pyridin-1-ium-2-one formation at 50 uM incubated for 45 mins in presence of NADPH and glutathione by LC-MS/MS analysis; format: ADME; details: recombinant enzyme, 0.75 h
[13] = Drug metabolism in rat liver assessed as formation of GSH-conjugate at 100 mg/kg, ip measured up to 3 hrs by LC-MS/MS analysis; format: ADME, organism-based; details: in vivo

T1 sequence (P08684 whole entry): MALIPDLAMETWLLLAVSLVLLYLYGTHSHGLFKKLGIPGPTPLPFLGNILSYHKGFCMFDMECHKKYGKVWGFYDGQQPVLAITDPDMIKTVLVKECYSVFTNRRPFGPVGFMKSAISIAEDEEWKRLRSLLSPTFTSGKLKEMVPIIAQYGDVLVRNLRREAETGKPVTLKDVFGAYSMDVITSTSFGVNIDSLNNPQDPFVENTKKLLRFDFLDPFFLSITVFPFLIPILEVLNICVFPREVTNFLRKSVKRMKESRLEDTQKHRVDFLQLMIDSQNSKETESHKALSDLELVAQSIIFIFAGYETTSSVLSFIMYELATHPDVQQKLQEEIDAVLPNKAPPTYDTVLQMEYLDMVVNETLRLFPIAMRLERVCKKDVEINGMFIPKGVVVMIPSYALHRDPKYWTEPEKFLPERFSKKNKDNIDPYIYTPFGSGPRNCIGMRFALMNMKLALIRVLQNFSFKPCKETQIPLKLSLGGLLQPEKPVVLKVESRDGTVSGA
T2 sequence (P20815 whole entry): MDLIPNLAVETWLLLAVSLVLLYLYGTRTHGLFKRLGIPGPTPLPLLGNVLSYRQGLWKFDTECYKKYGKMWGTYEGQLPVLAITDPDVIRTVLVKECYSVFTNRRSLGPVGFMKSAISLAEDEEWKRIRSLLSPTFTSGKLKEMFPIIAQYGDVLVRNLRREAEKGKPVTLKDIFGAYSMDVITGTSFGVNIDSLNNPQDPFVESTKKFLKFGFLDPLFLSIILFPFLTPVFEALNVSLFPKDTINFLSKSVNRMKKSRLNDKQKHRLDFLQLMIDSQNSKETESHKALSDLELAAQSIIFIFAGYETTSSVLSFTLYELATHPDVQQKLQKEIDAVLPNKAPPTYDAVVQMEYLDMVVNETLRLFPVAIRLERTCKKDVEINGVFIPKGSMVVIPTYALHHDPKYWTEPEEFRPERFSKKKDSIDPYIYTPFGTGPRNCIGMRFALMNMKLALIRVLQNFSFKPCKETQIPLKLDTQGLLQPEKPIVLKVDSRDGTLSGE

O=c1ccc(CO)cn1-c1ccccc1
Retention_time [1]: 7.25 min

CC(=O)N[C@@H](CSCc1ccc(=O)n(-c2ccccc2)c1)C(=O)O
Retention_time [2]: 7.26 min

C=C1C=CC(=O)[N+](c2ccccc2)=C1
Drug uptake (Cytochrome P450 3A4 [3]): Metabolite_Detected | Drug uptake (Cytochrome P450 3A5 [4]): Metabolite_Detected

Cc1ccc(=O)n(-c2ccccc2)c1 [PIRFENIDONE]
Drug metabolism (Cytochrome P450 2A6): Metabolite_Detected | Drug metabolism [5]: Metabolite_Detected | Drug metabolism (Cytochrome P450 3A4 [6]): Metabolite_Detected | Retention_time [7]: 6.6 min | Retention_time [8]: 6.24 min | Drug metabolism [9]: Metabolite_Detected | Drug metabolism [10]: Dose-dependent effect | Activity [11]: Non-Toxic | Activity (Hepatocyte): Non-Toxic | Drug metabolism (Cytochrome P450 3A5 [12]): Metabolite_Detected | Drug metabolism [13]: Dose-dependent effect

Source: ChEMBL document CHEMBL4627408, “Metabolic Activation of Pirfenidone Mediated by Cytochrome P450s and Sulfotransferases” (J Med Chem, 2020)
